# Like-named read-outs stand apart in the source and are kept apart here.
# Experiments:
# [1] = test system: S. aureus A15097 (Meth-res.); assay: Minimum Inhibitory Concentration, tube dilution; format: cell-based; details: Staphylococcus aureus, table 6
# [2] = test system: P. rettgeri A22424; assay: Minimum Inhibitory Concentration, tube dilution; format: cell-based; details: Providencia rettgeri, overnight 37° C.
# [3] = test system: E. cloacae A-9656; assay: Minimum Inhibitory Concentration, tube dilution; format: cell-based; details: Enterobacter cloacae, A9656; overnight 37° C.; table 6
# [4] = Half-life in phosphate buffer pH 7.4; format: physicochemical; details: phosphate buffer; for half-life at 100 µM: pH 7.4, τ1/2 (half-life)
# Description: To a solution of p-nitrobenzyl 3-[2-(1-pyridinium)ethylthio)]-6α[1-(R)-hydroxyethyl]-7-oxo-1-azabicyclo(3.2.0)hept-2-ene-carboxylate diphenylphosphate (0.16 g, 0.22 mmol) in wet tetrahydrofuran (10mL) was added ether (10mL), potassium phosphate monobasic-sodium hydroxide buffer pH 7.4 (16 mL, 0.05 M) and 10% palladium on charcoal (0.16 g). The resulting mixture was hydrogenated under 40 psi for 1 h at 25° C. The two phases were separated and the organic phase was extracted with water (2×3 mL). The aqeuous solutions were combined, washed with ether (2×10 ml) and poured on top of a column (1.5×6.2 cm) pf μ-bondapak C-18 after the traces of organic solvents have been removed under vacuum. Elution of the column with water gave after lyophylization of the appropriate fractions a yellowish powder 0.062 g (84%), ir (KBr) .nu.max : 3700-3000 (OH), 1755 (C--O of β-lactam), 1630 (pyridinium), 1590 cm^-1 (carboxylate), ^1 Hmr (D2 O): 1.22 (3H, d, J=6.4 Hz, CH3 CHOH), 2.92 (d, J=9.1 Hz, H-4), 2.97 (d, J=9.1 Hz, H-4), 3.20 (dd, J=2.5 Hz, J=6.1 Hz, H-6), 3.44 (t, J=6.0 Hz, CH2 S), 3.93 (dd, J=9.1 Hz, J=2.5 Hz, H-5), 4.82 (t, J=6.0 Hz, CH2 N^+), 8.04 (m, Hm of pyridinium), 8.5 (m, Hp of pyridinium), 8.82 (dd, J=3.2. Hz, J=1.1 Hz, Ho of pyridinium), uv (H2 O) λ max : 259 (ε5800), 296 (ε7030) mμ, .tau.1/2 =13.5 h (measured at a concentration of 10^-4 M in phosphate buffer pH 7.4 at 36.8° C.).
# [5] = test system: E. coli A15119; assay: Minimum Inhibitory Concentration, tube dilution; format: cell-based; details: Escherichia coli, A15119, overnight 37° C.; table 6
# [6] = test system: S. marcescens A20019; assay: Minimum Inhibitory Concentration, tube dilution; format: cell-based; details: Serratia marcescens, A20019, overnight 37° C.; table 6
# [7] = test system: S. pneumoniae A-9585; assay: Minimum Inhibitory Concentration, tube dilution; format: cell-based; details: Streptococcus pneumoniae, A9585, overnight 37° C.; table 6
# [8] = test system: S. pyogenes A-9604; assay: Minimum Inhibitory Concentration, tube dilution; format: cell-based; details: Streptococcus pyogenes, A9604, overnight 37° C.; table 6
# [9] = test system: S. aureus A-9537; assay: Minimum Inhibitory Concentration, tube dilution; format: cell-based; details: Staphylococcus aureus, table 6, read-out: MIC
# [10] = test system: S. aureus A-9606 (Pen-res.); assay: Minimum Inhibitory Concentration, tube dilution; format: cell-based; details: Staphylococcus aureus, Pen-res; table 6
# [11] = test system: S. faecalis A20688; assay: Minimum Inhibitory Concentration, tube dilution; format: cell-based; details: Enterococcus faecalis
# [12] = test system: E. coli A20341-1; assay: Minimum Inhibitory Concentration, tube dilution; format: cell-based; details: Escherichia coli, A203411, overnight 37° C.; table 6
# [13] = test system: P. vulgaris A21559; assay: Minimum Inhibitory Concentration, tube dilution; format: cell-based; details: Proteus vulgaris, A21559, overnight 37° C.; table 6
# [14] = test system: P. aeruginosa A-9843A; assay: Minimum Inhibitory Concentration, tube dilution; format: cell-based; details: Pseudomonas aeruginosa, A9843A, overnight 37° C.; table 6; read-out: MIC
# [15] = test system: H. influenzae A-9833; assay: Minimum Inhibitory Concentration, tube dilution; format: cell-based; details: Haemophilus influenzae, A9833; overnight 37° C.; table 6; read-out: MIC
# [16] = test system: H. influenzae A21518; assay: Minimum Inhibitory Concentration, tube dilution; format: cell-based; details: Haemophilus influenzae, overnight 37° C., table 6
# [17] = test system: B. fragilis A22862; assay: Minimum Inhibitory Concentration, tube dilution; format: cell-based; details: Bacteroides fragilis, overnight 37° C., table 6
# [18] = test system: B. fragilis A22696; assay: Minimum Inhibitory Concentration, tube dilution; format: cell-based; details: Bacteroides fragilis
# [19] = test system: P. aeruginosa A20481; assay: Protective effect, intramuscular treatment of infected mice (table 7); format: in vivo; details: Pseudomonas aeruginosa, A20481, im; i.m. 1 and 3.5 hours post-infection; ~1×10^5 organisms i.p.; read-out: PD50 /treatment
# Description: (§1) Drugs were administered i.m. 0 to 2 hours post-infection (A9606) or 1 and 3.5 hours post-infection for the others.
# [20] = test system: P. mirabilis A9900; assay: as above; format: in vivo; details: Proteus mirabilis, A9900, im; i.m. 1 and 3.5 hours post-infection; ~1×10^7 organisms i.p.; read-out: PD50 /treatment
# Description: as §1
# [21] = test system: S. aureus A9606; assay: as above; format: in vivo; details: Staphylococcus aureus, A9606, im; i.m. 0 to 2 hours post-infection; ~1×10^9 organisms i.p.; read-out: PD50 /treatment
# Description: as §1
# [22] = test system: P. aeruginosa A9843A; assay: animal or person; format: in vivo, mice; details: Pseudomonas aeruginosa, in Mus musculus, im, 3.5 h, read-out: PD50 /treatment
# Description: as §1
# [23] = test system: P. mirabilis A-9900; assay: Minimum Inhibitory Concentration, tube dilution; format: cell-based; details: Proteus mirabilis, A9900, overnight 37° C.; table 6
# [24] = test system: P. aeruginosa A21213; assay: Minimum Inhibitory Concentration, tube dilution; format: cell-based; details: Pseudomonas aeruginosa, A21213, overnight 37° C.; table 6; read-out: MIC
# [25] = test system: E. cloacae A9659; assay: Minimum Inhibitory Concentration, tube dilution; format: cell-based; details: Enterobacter cloacae, A9659, overnight 37° C., table 6
# [26] = test system: M. morganii A15153; assay: Minimum Inhibitory Concentration, tube dilution; format: cell-based; details: Morganella morganii, A15153, overnight 37° C.; table 6
# [27] = Pharmacokinetic parameters in the mouse after intramuscular dose; format: in vivo, mice; details: im, 20 mg/kg
# Description: Also shown is the urinary recovery in the mice.
# Compounds were solubilized in 0.1 M phosphate buffer pH 7.
# [28] = test system: K. pneumoniae A20468; assay: Minimum Inhibitory Concentration, tube dilution; format: cell-based; details: Klebsiella pneumoniae, A20468, overnight 37° C.; table 6
# [29] = test system: P. aeruginosa A9843A; assay: animal or person; format: in vivo, mice; details: Pseudomonas aeruginosa, in Mus musculus, im, read-out: PD50 /treatment
# Description: The PD50 (dose in mg/kg required to give protection to 50% of the infected mice) is indicated.
# [30] = test system: K. pneumoniae A-9664; assay: Minimum Inhibitory Concentration, tube dilution; format: cell-based; details: Klebsiella pneumoniae, A9664, overnight 37° C.; table 6
# [31] = A20688, overnight 37° C., table 6, read-out: MIC
# [32] = overnight 37° C., table 6, read-out: MIC
SMILES,MIC [1],"MIC ([2]; table 6, read-out: MIC)",MIC [3],half-life at 100 µM [4],MIC [5],MIC [6],MIC [7],MIC [8],"MIC ([9]; A9537, 50% serum)","MIC ([9]; A9537, overnight 37° C.)",MIC [10],"MIC [11, 31]",MIC [12],MIC [13],MIC [14],MIC [15],MIC [16],MIC [17],MIC [23],MIC [24],further results
"CC(C[n+]1ccccc1)SC1=C(C(=O)[O-])N2C(=O)[C@H]([C@@H](C)O)[C@H]2C1 (single isomer, unassigned) [Ex. 15 (cmp. ""B"")]",0.03 µg/mL,0.06 µg/mL,0.06 µg/mL,756 min,,,,,,,,,,,,,,,,,
"C[C@@H](O)[C@H]1C(=O)N2C(C(=O)[O-])=C(SC3CCCCC3[n+]3ccccc3)C[C@H]12 (single isomer, unassigned) [Ex. 16 (cmp. ""A""), (5R,6S) 3-[2-[(R or S)-(1-pyridinium)]-1-(R or S)-cyclohexylthio]-6-[1-(R)-hydroxyethyl]-7-oxo-1-azabicyclo(3.2.0)hept-2-ene-2-carboxylate]",,,0.5 µg/mL,,0.06 µg/mL,0.13 µg/mL,,,,,,,,,,,,,,,
"C[C@@H](O)[C@H]1C(=O)N2C(C(=O)[O-])=C(SCC[n+]3cccc(CO)c3)C[C@H]12 [Example 5, (5R,6S)-3-[[2-(3-hydroxymethylpyridino)ethyl]thio]-6-[(R)-1-hydroxyethyl]-7-oxo-1-azabicyclo[3.2.0]hept-2-ene-2-carboxylate]",> 63 µg/mL,,,,0.06 µg/mL,,0.03 µg/mL,0.03 µg/mL,0.06 µg/mL,0.03 µg/mL,0.03 µg/mL,0.5 µg/mL,0.06 µg/mL,0.06 µg/mL,2 µg/mL,> 32 µg/mL,> 32 µg/mL,0.06 µg/mL,,,"MIC [18, 32]: 0.5 µg/mL; ED50 [19]: 0.8 mg/kg; ED50 [20]: 22 mg/kg; ED50 [21]: 0.5 mg/kg; ED50 [22]: 0.9 mg/kg; half-life ([4]; pH 7.4, t1/2 (half-life)): 840 min"
"Cc1cccc[n+]1CCSC1=C(C(=O)[O-])N2C(=O)[C@H]([C@@H](C)O)[C@H]2C1 [Example 7, 3-[2-(1-(2-methylpyridinium))ethylthio]-6α-[1-(R)-hydroxyethyl]-7-oxo-1-azabicyclo(3.2.0)hept-2-ene-carboxylate]",> 63 µg/mL,,,900 min,0.03 µg/mL,0.03 µg/mL,0.03 µg/mL,0.03 µg/mL,0.03 µg/mL,0.03 µg/mL,0.03 µg/mL,,0.03 µg/mL,0.03 µg/mL,4 µg/mL,> 32 µg/mL,> 32 µg/mL,0.06 µg/mL,0.03 µg/mL,1 µg/mL,"MIC ([11]; A20688): 0.5 µg/mL; MIC [18]: 0.5 µg/mL; MIC ([25]; read-out: MIC): 0.06 µg/mL; MIC [26]: 0.03 µg/mL; ED50 [19]: 1.4 mg/kg; ED50 [20]: ~22 mg/kg; ED50 [21]: 0.6 mg/kg; ED50 [22]: 0.9 mg/kg; AUC ([27]; blood): 7000 ng·h/mL; Cmax ([27]; blood): 15000 ng/mL; half-life ([27]; blood, read-out: T1/2 (blood)): 11 min; dose excreted ([27]; urine, read-out: Urine Recovery): 49 ± 9%"
"CSc1cc[n+](CCSC2=C(C(=O)[O-])N3C(=O)[C@H]([C@@H](C)O)[C@H]3C2)cc1 [Example 9, (5R) 3-[2-(4-methylthiopyridinio)ethylthio]-(6S)-[(1R)-hydroxyethyl]-7-oxo-1-azabicyclo[3.2.0]hept-2-ene-2-carboxylate]",,,,,0.03 µg/mL,0.06 µg/mL,0.002 µg/mL,0.001 µg/mL,0.016 µg/mL,0.008 µg/mL,0.008 µg/mL,,0.03 µg/mL,0.016 µg/mL,4 µg/mL,,,0.06 µg/mL,0.06 µg/mL,2 µg/mL,"MIC ([11]; A20688, overnight 37° C., table 6): 0.25 µg/mL; MIC [28]: 0.25 µg/mL; MIC ([2]; table 6): 0.25 µg/mL; MIC [25]: 0.25 µg/mL; ED50 [29]: 3.1 mg/kg"
Cc1cccc(C)[n+]1CCSC1=C(C(=O)[O-])N2C(=O)[C@H]([C@@H](C)O)[C@H]2C1 [Example 12],,0.5 µg/mL,0.5 µg/mL,,,0.06 µg/mL,0.002 µg/mL,0.002 µg/mL,0.03 µg/mL,0.008 µg/mL,0.016 µg/mL,0.25 µg/mL,0.016 µg/mL,0.03 µg/mL,> 32 µg/mL,,,0.06 µg/mL,0.06 µg/mL,16 µg/mL,"MIC [30]: 0.06 µg/mL; MIC [18, 32]: 0.25 µg/mL; MIC ([25]; read-out: MIC): 0.25 µg/mL; MIC [26]: 0.06 µg/mL; ED50 [29]: > 25 mg/kg"
